From patent US10865388B2, “Method for identifying anti-cancer agents using an in vitro cell culture system that maintains cancer cell stemness” (National Taiwan University, priority 2014, dated 2020)

What was measured:
Format in all cases: cell-based, human
[1] = system: CLS1/CAF; assay: Drug resistance assay (MTT), CLS1/CAF; details: 48 h drug treatment, CLS1 co-cultured with CAFs
Description: (§1) An MTT [3-(4,5-dimethylthiazolyl-2)-2,5-diphenyltetrazolium bromide] (Sigma) assay was performed to determine cell proliferation. Briefly, CLS1/CAF and CLS1 cells were added to 96-well plates at a density of 5×10^3 cells/well. After incubating for 24 h, the cells were serum-starved overnight. The cells were then treated with different concentrations (0-50 μM) of the drugs docetaxel, cisplatin, etoposide and vinorelbine for 48 h. After 48 h, the culture medium containing 0.5 mg/ml MTT was added to each well. After 1.5 h of incubation, the medium was removed, and DMSO was added to the plates. The color intensity of the solubilized formazan was measured at 570 nm in an ELISA plate reader (Vector3; Perkin-Elmer, USA).

[2] = system: CLS1; assay: Drug resistance assay (MTT), CLS1; details: 48 h drug treatment, CLS1 after CAF removal
Description: as §1

[3] = system: lung cancer cells co-cultured with CAFs; assay: Image-based high-content analysis of Nanog-positive cells per colony
Description: Lung CSCs or cancer cells (200 cells/well) were added to 96-well plates pre-seeded with CAFs (2000 cells/well) and were allowed to attach to the plates overnight. After different treatments, cells were processed following the immunofluorescence protocol with the Nanog (ReproCELL) (1:300) primary antibody (as the cancer stem-cell marker) and the mouse anti-human CD90 FITC-conjugated (5E10, BD Pharmingen) antibody (as the CAF marker) overnight at 4° C. Next, the primary antibodies were incubated with the TRITC-conjugated secondary antibody [goat anti-rabbit IgG (H+L) Conjugate, Invitrogen] for 2 h at room temperature. The nuclei were counterstained with the Hoechst 33342 dye (Invitrogen). To determine the background fluorescence level of the secondary antibody, each plate included control wells containing only the secondary antibody (stained with the Hoechst 33342 dye). Images of the stained cells were acquired using the automated fluorescence microscopy platform.
Image acquisition and analysis were performed as follows. Stained cells were imaged using the high-content analysis platform with a 4× objective. […] The images were analyzed using the MetaXpress® software (Molecular Devices). […] Finally, the TRITC-stained cell count and the total cell count were determined. The stemness of each colony was calculated as the ratio of Nanog-positive (TRITC-stained) cells to total cells. […]

[4] = system: Nanog; assay: RT Q-PCR analysis of the stem cell marker Nanog; details: for Nanog expression in CLS1 cells treated with cytokine: IGF-II 10 ng/ml, HGF 10 ng/ml, sCD14 500 ng/ml (FIG. 4f)
Description: The expression level of stemness-related genes and validation of the Affymetrix microarray data for CAF, CLS1/CAF and CLS1 were performed through RT Q-PCR using an ABI Prism 7900 Sequencer (Applied Biosystems).
TATA-box binding protein (TBP) and β-actin were used as internal controls. The expression levels were normalized to TBP and defined as −ΔCT=−[CTtarget−CTTBP]. The relative expression ratio was calculated as the fold change relative to the control (2^−ΔΔCT). The experiments were performed in triplicate.

[5] = system: CLS1 cells; assay: Ultra-low sphere-forming assay, CLS1; details: IGF-II 10 and 100 ng/ml, 21 days (FIG. 5b)
Description: An ultra-low sphere-forming assay was performed as previously described (Dontu, et al., 2003) and modified as the following procedures. A single-cell suspension of lung CSCs in MCDB201 serum-free medium (Invitrogen) supplemented with 20 ng/ml EGF (Sigma) and 20 ng/ml bFGF (Invitrogen) was seeded in ultra-low adherent 24-well plates (Corning, Corning, N.Y., USA; 200 viable cells/well). The medium was supplemented with fresh growth factors twice weekly. After 3 weeks, the spheres were examined under the Axiovert 200 microscope.

[6] = system: ALDH activity; assay: ALDEFLUOR assay (flow cytometry); details: CLS1/CAFs, A549, H1975 and EKVX; IGF-II 100 ng/ml (FIG. 15)
Description: ALDH activity of cells was measured using the ALDEFLUOR assay kit (StemCell Technologies) based on the manufacturer's protocol and a previous report. Ginestier, et al., 2007. After different treatments, the cells were suspended in the ALDEFLUOR assay buffer containing the ALDH substrate BODIPY-aminoacetaldehyde (BAAA, 1 mM per 1×10^6 cells, incubate 30 min at 37° C.). As a negative control, the cell sample was treated with diethylaminobenzaldehyde (DEAB), a specific ALDH inhibitor. Nonviable cells were identified by propidium iodide staining and analysis using the FACSAria instrument (Becton Dickinson).

[7] = system: IGF1R-p/IGF1R, AKT-p/AKT and Nanog; assay: Western blot analysis of IGF1R, AKT and Nanog; details: CLS1, CL141 and CL152; IGF-II 10 or 100 ng/ml, time-dependent (FIG. 5c)
Description: The detailed procedures were performed as described in Zoller, Nat Rev Cancer 11:254-267 (2011). The primary antibodies for p-IGF1R (Y1316, 6113S; 1:1000), p-AKT (D9E; 1:1000), AKT (927L; 1:1000) and Nanog (D73G4; 1:1000) were purchased from Cell Signaling Technology, Inc., and the primary antibody for IGF1R (C-20; 1:1000) was purchased from Santa Cruz. Monoclonal mouse anti-β-actin (Chemicon, Millipore; 1:5000) was used as a loading control. The membranes were then washed three times with TBST, followed by incubation with horseradish peroxidase (HRP)-conjugated secondary antibody (1:5,000) in TBST/2% skim milk. Bound antibody was detected using the Enhanced Chemiluminescence System (Santa Cruz, Calif.). Chemiluminescent signals were captured using the Fujifilm LAS 3000 system (Fujifilm, Tokyo, Japan). All experiments were performed at least three times in duplicate.

## N.N.[Cl][Pt][Cl] [Cisplatin]
[1]
  IC50: 310 nM
[2]
  IC50: 200 nM

## CC(=O)O[C@@]12CO[C@@H]1C[C@H](O)[C@@]1(C)C(=O)[C@H](O)C3=C(C)[C@@H](OC(=O)[C@H](O)[C@@H](NC(=O)OC(C)(C)C)c4ccccc4)C[C@@](O)([C@@H](OC(=O)c4ccccc4)[C@H]21)C3(C)C [Docetaxel]
[1]; Homo sapiens
  IC50: 54.8 nM
[2]; Homo sapiens
  IC50: 4.2 nM

## COc1cc([C@@H]2c3cc4c(cc3[C@@H](O[C@@H]3O[C@@H]5CO[C@@H](C)O[C@H]5[C@H](O)[C@H]3O)[C@H]3COC(=O)[C@H]23)OCO4)cc(OC)c1O [Etoposide (VP-16), Etoposide]
[1]; Homo sapiens
  IC50: 109000 nM
[2]; Homo sapiens
  IC50: 1060 nM

## COc1cc([C@@H]2c3cc4c(cc3[C@H](O)[C@H]3COC(=O)[C@@H]23)OCO4)cc(OC)c1OC [PPP, picropodophyllin]
[3]; A549, EKVX, CLS1, CL141 and CL152 co-cultured with CAFs, antibody 1 μg/ml, inhibitors 1 μM/ml (FIG. 6a)
  Nanog-positive cells in each colony: significantly inhibited

## CCC1=C[C@@H]2CN(C1)Cc1c([nH]c3ccccc13)[C@@](C(=O)OC)(c1cc3c(cc1OC)N(C)[C@H]1[C@@](O)(C(=O)OC)[C@H](OC(C)=O)[C@]4(CC)C=CCN5CC[C@]31[C@@H]54)C2 [Vinorelbine ditartrate]
[1]; Homo sapiens
  IC50: 775 nM
[2]; Homo sapiens
  IC50: 28.5 nM

## HGF: hepatocyte growth factor, cytokine added to CLS1 cells
[4]
  Nanog expression in CLS1 cells treated with cytokine: induced

## IGF-II: growth factor secreted by CAFs, added as cytokine to cancer cells
[3]; IGF-II 10 and 100 ng/ml, CLS1 cells (FIG. 14b)
  number of Nanog-positive cells per colony: facilitated
[5]
  sphere numbers and size: enlarged
[6]
  ALDEFLUOR-positive ratio: increased
[4]; CLS1, A549, H1975 and H460 treated with IGF-II 100 ng/ml (FIG. 5a)
  Nanog expression: increased
[4]
  Nanog expression in CLS1 cells treated with cytokine: induced
[7]
  IGF1R and Akt phosphorylation and downstream Nanog expression: induced
